Data on one compound can be found in patent US8889699B2, “5-fluorouracil derivative” (Delta-Fly Pharma, Inc., priority 2009, dated 2014).

Molecules are shown by their SMILES. Read-outs that look alike come from different tables or passages of the source.

This experiment deals with sarcoma 180 cells. As to the kind of experiment: Inhibition of intracellular phosphorylation of 5-FU in cancer cells. It is filed as cell-based, mouse. The following applies: for inhibition at 10 µM / inhibition at 100 µM: Mus musculus, Sarcoma-180, 0.5 h. The method, then: (§1) • (a) Test liquid preparation 1: Compound I-2 or I-10 of the present invention was dissolved to a concentration of 1 mM in cold physiological saline. The resulting product was further diluted 10-fold with physiological saline, yielding a 100-μM solution. • (b) Test liquid preparation 2: As an OPRT inhibitor, which inhibits the phosphorylation of 5-FU, citrazinic acid (Citra.A.) was dissolved to a concentration of 1 mM in cold physiological saline, and further diluted 10-fold with physiological saline, yielding a 100-μM solution. • (c) Preparation of cancer cell suspension: Ascites-type sarcoma 180 cells were preliminarily transplanted intraperitoneally into an ICR mouse and proliferated therein for use in the test as raw (intact) cells. The proliferated cells were isolated and then washed with physiological saline. […] Immediately after the completion of the reaction, 4 mL of a cold Hanks solution was added to the reaction solution, and the cells were washed and separated by centrifugation. After this procedure was repeated twice, 2 mL of a cold 5% trichloroacetic acid (TCA) solution was added to the cell pellet to disrupt the cells, and 5-FU and its nucleotide metabolites were extracted. Subsequently, a portion of the nucleic acid extract was applied to a silica gel 60F254 plate and developed with a mixed liquid comprising chloroform-methanol-acetic acid (17:3:1) to isolate the nucleotide moiety. The radioactivity thereof was measured and the concentration of 5-FU phosphorylation was measured.
as §1, with “1: Compounds I-9, I-11, I-12, and I-13” for “1: Compound I-2 or I-10”, “invention were separately” for “invention was”, “saline. Each of the” for “saline. The”, “resulting products” for “resulting product”, “acid” for “acid (Citra.A.)”

In general, inhibition refers to the percentage by which the read-out fell short of the control. As to `O=C(O)c1cc(O)nc(O)c1` [Citra. A., citrazinic acid, reference compound], the “RNA Fraction” value is 62.19 pmol/1 × 10^7 cells (Conc. 10 μM, 30 min. Incubation, 5-FU 2 μM, Table 6) and 60.13 pmol/1 × 10^7 cells (Conc. 100 μM, 30 min. Incubation, 5-FU 2 μM, Table 6). Further, the F-nucleotides runs as follows: (Conc. 10 μM, 30 min, Table 3 run with control 60.93) 55.78 pmol/1 × 10^7 cells; (Conc. 10 μM, 30 min, Table 3 run with control 63.32) 62.19 pmol/1 × 10^7 cells; (Conc. 100 μM, 30 min, Table 3 run with control 60.93) 51.72 pmol/1 × 10^7 cells; (Conc. 100 μM, 30 min, Table 3 run with control 63.32) 60.13 pmol/1 × 10^7 cells. In addition, the inhibition at 10 µM runs as follows: (Conc. 10 μM, 30 min. Incubation, 5-FU 2 μM, Table 6, read-out: Inhibition (%) of phosphorylation of 5-FU) 1.8%; (Conc. 10 μM, 30 min, Table 3 run with control 60.93, read-out: % Inhibition of 5-FU phosphorylation) 8.5%; (Conc. 10 μM, 30 min, Table 3 run with control 63.32, read-out: % Inhibition of 5-FU phosphorylation) 1.8%. Also, the inhibition at 100 µM was 5% (Conc. 100 μM, 30 min. Incubation, 5-FU 2 μM, Table 6, read-out: Inhibition (%) of phosphorylation of 5-FU); 15.1% (Conc. 100 μM, 30 min, Table 3 run with control 60.93, read-out: % Inhibition of 5-FU phosphorylation); 5.1% (Conc. 100 μM, 30 min, Table 3 run with control 63.32, read-out: % Inhibition of 5-FU phosphorylation); 5 to 15% (concentration of 100 μM, reaction for 30 minutes, read-out: percent inhibition of intracellular phosphorylation of 5-FU).
